From patent US12065512B2, “Cyclic peptide and a medicament, external preparation and cosmetic comprising said cyclic peptide” (Igisu Co., Ltd., priority 2015, dated 2024)
Positions of bridges follow the written chain, without caps; N, C: chain ends. No end group written: not given here.

System: nasal cavity
Assay: Cyclic peptides with amino acid replacement: nasal effect (formulations A to E = 3, 15, 30, 100, 500 μg/ml in physiological saline, 0.1 ml)
Format: in vivo, human
Settings: formulation C (30 μg/ml in physiological saline), once a day, 0.1 ml applied to each nasal cavity; subject with allergic rhinitis
Protocol: Next, cyclic peptides with some replaced amino acid were subjected to following examination in order to confirm their effect. The methods for preparing the above cyclic peptide and confirming amino acid sequence of the prepared peptide were same as the method for preparing the cyclic peptide as described above and Mass spectroscopy method.
9.3 Confirming Nasal Effect
The obtained cyclic peptide was prepared in physiological saline at 3, 15, 30, 100 or 500 μg/ml, and 0.1 ml each was applied to nasal cavity. Each of formulations A to E in the table indicates the concentration of the cyclic peptide at 3, 15, 30, 100 or 500 μg/ml, respectively. The absence of the effect upon the application of physiological saline without the peptide confirmed the effect was not a placebo effect.

SEQ ID NO 34 (CFGRKMDRISSSSGVGC; disulfide 1-17)
Itches after application: No irritating symptoms.
